Data taken from patent US8815918B2, “Imidazo [2, 1-B] [1, 3, 4] thiadiazole derivatives” (Centro Nacional de Investigaciones Oncologicas (CNIO), priority 2009, dated 2014).
Where two headings read alike, the source gives them in different places.

Biological target: PI3K (p110α/p85α) (Homo sapiens (Human), UniProt P42336)
Assay: PI3K Activity Assay (ADP Hunter Plus)
Assay type: biochemical
Conditions: for inhibition at 10 µM: 10 μM compound concentration, read-out: Inhibition (%) of PI3Kα activity, Inh (%) at 10 μM
Description: The kinase activity was measured by using the commercial ADP Hunter™ Plus assay available from DiscoveRx (#33-016), which is a homogeneous assay to measure the accumulation of ADP, a universal product of kinase activity. The enzyme, PI3K (p110α/p85α was purchased from Carna Biosciences (#07CBS-0402A). The assay was done following the manufacturer recommendations with slight modifications: Mainly the kinase buffer was replace by 50 mM HEPES, pH 7.5, 3 mM MgCl2, 100 mM NaCl, 1 mM EGTA, 0.04% CHAPS, 2 mM TCEP and 0.01 mg/ml BGG. The PI3K was assayed in a titration experiment to determine the optimal protein concentration for the inhibition assay. To calculate the IC50 of the ETP-compounds, serial 1:5 dilutions of the compounds were added to the enzyme at a fixed concentration (2.5 μg/mL. The enzyme was preincubated with the inhibitor and 30 μM PIP2 substrate (P9763, Sigma) for 5 min and then ATP was added to a final 50 μM concentration. Reaction was carried out for 1 hour at 25° C. Reagent A and B were sequentially added to the wells and plates were incubated for 30 min at 37° C. Fluorescence counts were read in a Victor instrument (Perkin Elmer) with the recommended settings (544 and 580 nm as excitation and emission wavelengths, respectively). Values were normalized against the control activity included for each enzyme (i.e., 100% PI3 kinase activity, without compound). These values were plot against the inhibitor concentration and were fit to a sigmoid dose-response curve by using the Graphad software.

[1] = read-out: Biological activity in PI3Kα, semi-quantitative

Chain of PI3K (p110α/p85α) (P42336 whole entry): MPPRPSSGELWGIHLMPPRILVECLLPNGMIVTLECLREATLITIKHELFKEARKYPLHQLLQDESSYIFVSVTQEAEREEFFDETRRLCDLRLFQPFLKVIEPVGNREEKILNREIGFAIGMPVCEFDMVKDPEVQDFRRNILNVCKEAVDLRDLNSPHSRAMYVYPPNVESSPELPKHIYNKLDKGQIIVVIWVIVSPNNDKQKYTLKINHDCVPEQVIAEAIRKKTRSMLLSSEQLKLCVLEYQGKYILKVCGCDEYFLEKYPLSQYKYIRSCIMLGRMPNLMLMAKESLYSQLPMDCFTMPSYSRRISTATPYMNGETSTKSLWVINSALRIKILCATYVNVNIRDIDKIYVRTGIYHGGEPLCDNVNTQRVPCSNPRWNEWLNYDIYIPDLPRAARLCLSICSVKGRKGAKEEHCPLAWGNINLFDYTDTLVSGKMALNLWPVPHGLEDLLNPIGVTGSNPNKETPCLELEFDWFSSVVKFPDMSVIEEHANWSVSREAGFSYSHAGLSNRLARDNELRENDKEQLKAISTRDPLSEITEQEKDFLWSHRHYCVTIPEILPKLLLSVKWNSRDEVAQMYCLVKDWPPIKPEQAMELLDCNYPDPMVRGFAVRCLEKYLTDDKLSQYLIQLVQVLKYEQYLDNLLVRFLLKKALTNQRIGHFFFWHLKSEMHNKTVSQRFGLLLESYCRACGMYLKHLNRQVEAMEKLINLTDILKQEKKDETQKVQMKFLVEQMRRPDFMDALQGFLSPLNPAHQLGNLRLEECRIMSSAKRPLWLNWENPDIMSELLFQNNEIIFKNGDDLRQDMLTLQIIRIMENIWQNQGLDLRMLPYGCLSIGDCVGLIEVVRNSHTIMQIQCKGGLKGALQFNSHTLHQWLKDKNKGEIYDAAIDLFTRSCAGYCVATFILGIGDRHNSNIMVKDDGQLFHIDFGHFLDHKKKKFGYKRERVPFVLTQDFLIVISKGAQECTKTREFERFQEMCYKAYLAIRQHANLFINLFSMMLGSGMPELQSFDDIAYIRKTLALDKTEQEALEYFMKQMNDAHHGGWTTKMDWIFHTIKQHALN
Chain of PI3K (p110α/p85α) (P27986 whole entry partner): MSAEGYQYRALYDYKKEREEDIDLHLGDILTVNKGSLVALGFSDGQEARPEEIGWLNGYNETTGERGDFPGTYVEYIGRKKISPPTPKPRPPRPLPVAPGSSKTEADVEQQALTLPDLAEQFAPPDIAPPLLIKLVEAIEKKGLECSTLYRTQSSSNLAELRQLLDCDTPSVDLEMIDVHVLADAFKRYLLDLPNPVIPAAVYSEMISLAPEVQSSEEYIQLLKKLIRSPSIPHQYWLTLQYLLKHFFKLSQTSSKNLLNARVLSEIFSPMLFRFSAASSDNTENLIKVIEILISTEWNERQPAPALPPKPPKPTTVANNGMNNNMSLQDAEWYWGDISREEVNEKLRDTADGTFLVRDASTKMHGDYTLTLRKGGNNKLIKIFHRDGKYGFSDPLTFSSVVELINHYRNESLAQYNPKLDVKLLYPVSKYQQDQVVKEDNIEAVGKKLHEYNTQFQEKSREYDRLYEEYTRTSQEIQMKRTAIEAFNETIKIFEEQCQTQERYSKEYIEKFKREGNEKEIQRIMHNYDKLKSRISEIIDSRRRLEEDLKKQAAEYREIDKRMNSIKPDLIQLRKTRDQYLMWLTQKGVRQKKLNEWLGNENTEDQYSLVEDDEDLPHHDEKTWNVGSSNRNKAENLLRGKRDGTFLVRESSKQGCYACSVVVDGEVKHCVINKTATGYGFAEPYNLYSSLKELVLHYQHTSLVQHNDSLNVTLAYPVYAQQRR

Row | inhibition at 10 µM [%] | IC50 [1] [µM] | IC50 (read-out: IC50 [μM] PI3Kα) [µM] | SMILES
1 | 100 | 0.1 to 1 |  | COc1ccc(-c2nn3c(-c4ccc(C#N)nc4)c(C)nc3s2)cc1OC [Example 2, 5-[2-(3,4-Dimethoxy-phenyl)-6-methyl-imidazo[2,1-b][1,3,4]thiadiazol-5-yl]-pyridine-2-carbonitrile]
2 | 81 | 1 to 50 |  | COc1ccc(-c2nn3c(-c4cccnc4)c(C)nc3s2)cc1OC [Example 4, 2-(3,4-Dimethoxy-phenyl)-6-methyl-5-pyridin-3-yl-imidazo[2,1-b][1,3,4]thiadiazole]
3 | 70 | 1 to 50 | 2.88 | COc1ccc(-c2c(C)nc3sc(-c4ccc(OC)c(OC)c4)nn23)cn1 [Example 5, 2-(3,4-Dimethoxy-phenyl)-5-(6-methoxy-pyridin-3-yl)-6-methyl-imidazo[2,1-b][1,3,4]thiadiazole]
4 | 85 | 0.1 to 1 |  | COc1ccc(-c2nn3c(-c4ccc(OC)c(OC)c4)c(C)nc3s2)cc1OC [Example 6, 2,5-Bis-(3,4-dimethoxy-phenyl)-6-methyl-imidazo[2,1-b][1,3,4]thiadiazole]
5 | 100 | 0.1 to 1 |  | COc1ccc(-c2nn3c(-c4cnc(N)nc4)c(C)nc3s2)cc1OC [Example 7, 5-[2-(3,4-Dimethoxy-phenyl)-6-methyl-imidazo[2,1-b][1,3,4]thiadiazol-5-yl]-pyrimidin-2-ylamine]
6 |  | 1 to 50 |  | COc1ccc(-c2nn3c(-c4ccc(O)nc4)c(C)nc3s2)cc1OC [Example 8, 5-[2-(3,4-Dimethoxy-phenyl)-6-methyl-imidazo[2,1-b][1,3,4]thiadiazol-5-yl]-pyridin-2-ol]

Second part, the compound before the results:

Row | SMILES | inhibition at 10 µM [%] | IC50 [1] [µM] | IC50 (read-out: IC50 [μM] PI3Kα) [µM]
7 | COc1ccc(-c2nn3c(-c4ccc(S(C)(=O)=O)c(F)c4)c(C)nc3s2)cc1OC [Example 1, 2-(3,4-Dimethoxy-phenyl)-5-(3-fluoro-4-methanesulfonyl-phenyl) -6-methyl-imidazo[2,1-b][1,3,4]thiadiazole] | 68 | 0.1 to 1 | 
8 | COc1ccc(-c2nn3c(-c4cnc(N)c(C(F)(F)F)c4)c(C)nc3s2)cc1OC [Example 3, 5-[2-(3,4-Dimethoxy-phenyl)-6-methyl-imidazo[2,1-b][1,3,4]thiadiazol-5-yl]-3-trifluoromethyl-pyridin-2-ylamine] | 97 | < 0.1 | 
9 | COc1cc(-c2nn3c(-c4cnc(N)c(C(F)(F)F)c4)c(C)nc3s2)ccc1OCCNC(=O)OC(C)(C)C [Example 9, tert-Butyl 2-(4-(5-(6-amino-5-(trifluoromethyl)pyridin-3-yl)-6-methylimidazo-[2,1-b][1,3,4]thiadiazol-2-yl)-2-methoxyphenoxy)ethylcarbamate] | 77 | 1 to 50 | 
10 | COc1cc(-c2nn3c(-c4cnc(N)c(C(F)(F)F)c4)c(C)nc3s2)ccc1OCC(=O)N(C)C [Example 10, 2-(4-(5-(6-amino-5-(trifluoromethyl)pyridin-3-yl)-6-methylimidazo[2,1-b][1,3,4]thiadiazol-2-yl)-2-methoxyphenoxy)-N,N-dimethylacetamide] |  | 1 to 50 | 
11 | COc1cc(-c2nn3c(-c4cnc(N)c(C(F)(F)F)c4)c(C)nc3s2)ccc1OCCN1CCOCC1 [Example 11, 5-(2-(4-(2-morpholinoethoxy)-3-methoxyphenyl)-6-methylimidazo[2,1-b][1,3,4]thiadiazol-5-yl)-3-(trifluoromethyl)pyridin-2-amine] | 83 | 1 to 50 | 
12 | COc1cc(-c2nn3c(-c4cnc(N)c(C(F)(F)F)c4)cnc3s2)ccc1OC1CCNCC1 [Example 12, 5-{2-[3-Methoxy-4-(piperidin-4-yloxy)-phenyl]-imidazo[2,1-b][1,3,4]thiadiazol-5-yl}-3-trifluoromethyl-pyridin-2-ylamine] |  | < 0.1 | 
13 | COc1ccc(-c2cnc3sc(-c4ccc(OC5CCNCC5)c(OC)c4)nn23)cn1 [Example 13, 2-[3-Methoxy-4-(piperidin-4-yloxy)-phenyl]-5-(6-methoxy-pyridin-3-yl)-imidazo[2,1-b][1,3,4]thiadiazole] |  | 1 to 50 | 
